Test results as given in patent US20110313032A1, “COMPETITIVE INHIBITORS OF TYPE II DEHYDROQUINASE ENZYME” (priority 2008, published 2011).
Structures can show the parent of a compound that is named as a salt.

Compound | melting point
O=C(O)[C@@]1(O)C[C@@H](O)[C@H](O)C(OCc2cccs2)=C1Cc1cccs1 (as salt: sodium) (hydrate or solvate) [Ib-8] | 178 to 181 °C
O=C(O)[C@]1(O)C=C(OCc2ccc3ccccc3c2)[C@@H](O)[C@H](O)C1 (as salt: sodium) (hydrate or solvate) [Ib-.10, Sodium (1R,4S,5R)-1,4-trihydroxy-3-(2-naphyl)methoxycyclohex-2-en-1-carboxylate] | 54 °C (dec.)
C=CC[C@H]1C(=O)[C@@H](O)[C@H](O)C[C@]1(O)C(=O)O (hydrate or solvate) [(2R)-Ia-1, (2R)-2-allyl-3-dehydroquinic acid] | 144 to 148 °C
C=CC[C@@H]1C(=O)[C@@H](O)[C@H](O)C[C@]1(O)C(=O)O (hydrate or solvate) [(2S)-Ia-1, (2S)-2-allyl-3-dehydroquinic acid] | 127 to 130 °C
O=C([O-])[C@]1(O)C=C(OCc2ccc3sccc3c2)[C@@H](O)[C@H](O)C1.[Na+] (hydrate or solvate) [Ib-7, Sodium (1R,4S,5R)-1,4,5-trihydroxy-3[(benzo[b]thiophen-5-yl)methoxy]cyclohex-2-en-1-carboxylate] | 157 to 160 °C (dec.)
O=C([O-])[C@@]1(O)C[C@@H](O)[C@H](O)C(OCc2ccc3ccccc3c2)=C1Cc1ccc2ccccc2c1.[Na+] (hydrate or solvate) [Ib-11, Sodium (1R,4S,5R)-1,4,5-trihydroxy-3-(naphth-2-yl)methoxy-2-(naphth-2-yl)methylcyclohex-2-en-1-carboxylate] | 184 to 187 °C
O=C([O-])[C@@]1(O)C[C@@H](O)[C@H](O)C(OCc2cccs2)=C1Cc1cc2ccccc2s1.[Na+] (hydrate or solvate) [Ib-12, Sodium (1R,4S,5R)-1,4,5-trihydroxy-3-(thien-2-yl)methoxy-2-(benzo[b]thiophen-2-yl)methylcyclohex-2-en-1-carboxylate] | 191 to 194 °C
O=C([O-])[C@@]1(O)C[C@@H](O)[C@H](O)C(OCc2ccc3sccc3c2)=C1Cc1cccs1.[Na+] (hydrate or solvate) [Ib-13, Sodium (1R,4S,5R)-1,4,5-trihydroxy-3-(benzo[b]thiophen-5-yl)methoxy-2-(thien-2-yl)methylcyclohex-2-en-1-carboxylate] | 184 °C (dec.)
Cc1cc2c(s1)[C@@H](O)[C@H](O)C[C@]2(O)C(=O)O (hydrate or solvate) [Ic-2, (4R, 6R, 7S)-4,6,7-trihydroxy-2-methyl-4,5,6,7-tetrahydrobenzo[b]thiophen-4-carboxylic acid] | 92 to 95 °C
Cc1ccc(CC2C(=O)C(O)C(O)CC2(O)C(=O)O)cc1 (single isomer, unassigned) (hydrate or solvate) [(2R)-Ia-4] | 105 to 108 °C
O=C1C(O)C(O)CC(O)(C(=O)O)C1Cc1c(F)c(F)c(F)c(F)c1F (single isomer, unassigned) (hydrate or solvate) [(2S)-Ia-6] | 123 to 125 °C
